The text below walks through data of ChEMBL document CHEMBL1152878, “N-Hydroxy-1,2-disubstituted-1H-benzimidazol-5-yl acrylamides as novel histone deacetylase inhibitors: design, synthesis, SAR studies, and in vivo antitumor activity” (Bioorg Med Chem Lett, 2009).

For one data set, the target named is Histone deacetylase 1 (Homo sapiens, UniProt Q13547).
In data set [1] the test system is HCT-116. The data set is described as follows: Antiproliferative activity against human HCT116 cells after 96 hrs by celltiter assay. The format is functional, cell-based. As to conditions: HCT-116, 96 h.
In another data set the test system is A2780. The data set is described as follows: Antiproliferative activity against human A2780 cells after 96 hrs by celltiter assay. The format is functional, cell-based. The settings on record: A2780, 96 h.
The subject of another data set is PC-3. The data set is described as follows: Antiproliferative activity against human PC3 cells after 96 hrs by celltiter assay. The class given is functional, cell-based. As to conditions: PC-3, 96 h.
A short description of data set [2]: in vitro. As to conditions: human, liver microsomes.
The nature of data set [3]: in vitro. The settings on record: mouse, liver microsomes.
Description: (§1) Metabolic stability in mouse liver microsomes assessed as half life
The next data set concerns COLO 205. The data set is described as follows: Antiproliferative activity against human COLO205 cells after 96 hrs by celltiter assay. The format is functional, cell-based. As to conditions: COLO 205, 96 h.
For data set [4] the following is noted: mouse, microsomes.
Description: as §1
Data set [5] is described as follows: Toxicity in ip dosed athymic mouse assessed as maximum tolerated dose. The class given is organism-based. The settings on record: in vivo.
Data set [6] concerns HCT-116. The data set is described as follows: Antitumor activity against human HCT116 cells xenografted in athymic mouse assessed as tumor growth inhibition at 100 mg/kg, ip qd for 21 days measured on day 11. The format is functional. As to conditions: HCT-116, ip, route intraperitoneal, read-out: TGI.
Data set [7] deals with Mus musculus. Kind of data set: Toxicity in athymic mouse xenografted with human HCT116 cells at 100 mg/kg, ip qd for 21 days measured on day 12. The format is organism-based, HCT-116. Also noted: dose 100 mg/kg, route intraperitoneal. The settings on record: in vivo, 504 h.
Data set [8] concerns HCT-116. The data set is described as follows: Induction of histone H3 hyperacetylation in human HCT116 cells. The class given is functional, cell-based.
Data set [9] relates to Mus musculus. The data set is described as follows: Induction of histone H3 hyperacetylation in human HCT116 cells xenografted athymic mouse. The class given is functional, organism-based. As to conditions: HCT-116.
For data set [10], the system named is HCT-116. The data set is described as follows: Antitumor activity against human HCT116 cells xenografted in athymic mouse assessed as tumor growth inhibition at 75 mg/kg, ip qd for 21 days measured on day 21. The format is functional. As to conditions: HCT-116, ip, 504 h, route intraperitoneal, read-out: TGI.
The subject of data set [11] is HCT-116. The data set is described as follows: Antitumor activity against human HCT116 cells xenografted in athymic mouse assessed as tumor growth inhibition at 50 mg/kg, ip qd for 21 days measured on day 21. As to conditions: HCT-116, ip, 504 h, route intraperitoneal, read-out: TGI. The class given is functional.
Data set [12] has as its system HCT-116. Kind of data set: Antitumor activity against human HCT116 cells xenografted in athymic mouse assessed as tumor growth inhibition at 60 mg/kg, ip qd for 21 days measured on day 22. The class given is functional. The settings on record: HCT-116, ip, route intraperitoneal, read-out: TGI.

The source made the active and inactive calls. No cut-off for these calls is given here. A value given as a limit tells only on which side of the number the result lay.

Chain of Histone deacetylase 1 (Q13547 whole entry): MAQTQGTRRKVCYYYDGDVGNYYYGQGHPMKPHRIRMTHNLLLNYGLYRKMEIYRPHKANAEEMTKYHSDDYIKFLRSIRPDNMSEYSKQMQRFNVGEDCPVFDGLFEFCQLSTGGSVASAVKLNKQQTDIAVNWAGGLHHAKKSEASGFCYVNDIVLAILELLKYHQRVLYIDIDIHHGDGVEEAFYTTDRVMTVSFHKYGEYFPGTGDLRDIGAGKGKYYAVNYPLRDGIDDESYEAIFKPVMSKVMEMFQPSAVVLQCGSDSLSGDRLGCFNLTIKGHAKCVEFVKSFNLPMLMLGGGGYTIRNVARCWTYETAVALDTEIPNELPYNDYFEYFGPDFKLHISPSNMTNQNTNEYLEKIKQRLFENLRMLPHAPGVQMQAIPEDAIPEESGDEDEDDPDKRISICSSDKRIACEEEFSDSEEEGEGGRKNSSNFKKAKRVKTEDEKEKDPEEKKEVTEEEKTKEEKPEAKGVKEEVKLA
Description for Histone deacetylase 1: Inhibition of recombinant HDAC1 by fluorimetric assay

Compound `O=C(O)CCn1c(CCc2ccccc2)nc2cc(/C=C/C(=O)NO)ccc21` returned a half-maximal inhibitory concentration (IC50) on Histone deacetylase 1 of 2300 nM.
`Cl.Cl.O=C(/C=C/c1ccc2c(c1)nc(CCc1ccccc1)n2CCN1CCCC1)NO`: the IC50 in the data set on HCT-116 [1] is 200 nM; in the data set on A2780, 190 nM; in the data set with PC-3, 150 nM. Also, the half-life was above 30 min in “in vitro [2]” and 2.7 min in the data set “in vitro [3]”.
As to `COCCCn1c(CCc2ccccc2)nc2cc(/C=C/C(=O)NO)ccc21`, the half-inhibitory concentration (IC50) in the data set on COLO 205 was found to be 2200 nM.
For the compound `CN(C)CC(C)(C)Cn1c(CCc2ccccc2)nc2cc(/C=C/C(=O)NO)ccc21.Cl.Cl`, the IC50 in the data set on HCT-116 [1] is 160 nM; with A2780, 110 nM; with PC-3, 180 nM. The compound also yielded a t1/2 in [4] of 1 min. Moreover, the half-life in the data set “in vitro [2]” was 12 min.
As for `O=C(/C=C/c1ccc2c(c1)nc(C1CCCCC1)n2CCCO)NO`, the half-maximal inhibitory concentration (IC50) with COLO 205 stood at 31000 nM.
On the same count and under the same terms, for `O=C(/C=C/c1ccc2c(c1)nc(-c1ccsc1)n2CCCO)NO` the value was 31000 nM.
For `CCN(CC)CCn1c(CCc2ccccc2)nc2cc(/C=C/C(=O)NO)ccc21.Cl.Cl`, the IC50 is 240 nM in the data set on HCT-116 [1], 100 nM in the data set with A2780 and 200 nM in the data set with PC-3. Further, the half-life in the data set “in vitro [2]” is 16 min; in the data set “in vitro [3]”, 2.8 min.
`O=C(/C=C/c1ccc2c(c1)nc(CCc1ccccc1)n2CCCO)NO` returned a concentration for half-maximal inhibition (IC50) with COLO 205 of 3200 nM.
Turning to `CN(C)CCCn1c(CCc2ccccc2)nc2cc(/C=C/C(=O)NO)ccc21`, the IC50 with COLO 205 worked out at 2000 nM; against Histone deacetylase 1, 190 nM.
`CC(C)Cc1nc2cc(CCC(=O)NO)ccc2n1CCCO` displayed an IC50 against Histone deacetylase 1 above 10000 nM.
In the case of `O=C(/C=C/c1ccc2c(c1)nc(CCc1ccccc1)n2CCN1CCOCC1)NO`, the 50% inhibitory concentration (IC50) in the data set with COLO 205 was 2800 nM.
Same read-out and setting: for `O=C(NO)c1ccc2c(c1)nc(CCc1ccccc1)n2CCCO` the value was 26000 nM.
`O=C(CCCCCCC(=O)Nc1ccccc1)NO` [VORINOSTAT]: the maximal tolerated dose (MTD) in data set [5] was 200 mg/kg.
The compound `O=C(/C=C/c1ccc2c(c1)nc(CCc1ccccc1)n2CCCn1ccnc1)NO` gave a 50% inhibitory concentration (IC50) with COLO 205 above 100000 nM.
Take `O=C(/C=C/c1ccc2c(c1)nc(CCc1ccccc1)n2Cc1ccccc1)NO`: the IC50 in the data set on COLO 205 was 1600 nM; on Histone deacetylase 1, 410 nM.
Consider `O=C(/C=C/c1ccc2c(c1)nc(CCc1ccccc1)n2CCCN1CCCC1=O)NO`, for which half-maximal inhibition in the data set with COLO 205 (IC50) was put at 11000 nM.
Consider `Cn1c(CCc2ccccc2)nc2cc(C3CC3C(=O)NO)ccc21` (centres undefined), for which it took 1300 nM to reach half-maximal inhibition at Histone deacetylase 1 (IC50).
Consider `CC(Cc1nc2cc(/C=C/C(=O)NO)ccc2n1CCCO)c1ccccc1` (centres undefined), for which the IC50 with COLO 205 came out at 1700 nM; on Histone deacetylase 1, 80 nM.
On the same counts, the results for `O=C(/C=C/c1ccc2c(c1)nc(CCc1ccccc1)n2CCCN1CCCC1)NO` are 610 nM and 310 nM.
In the same order, the values of `CCCn1c(CCc2ccccc2)nc2cc(/C=C/C(=O)NO)ccc21` are 2300 nM and 170 nM.
In the case of `CN(C)CC(C)(C)Cn1c(CCc2ccccc2)nc2cc(/C=C/C(=O)NO)ccc21`, the inhibition in vivo at 100 mg/kg with HCT-116 [6] amounted to 60%. Further, the Activity result with Mus musculus [7] is on record as “Toxic”. In addition, the IC50 with COLO 205 was 120 nM; against Histone deacetylase 1, 41 nM.
Turning to `Cl.Cl.O=C(/C=C/c1ccc2c(c1)nc(CCc1ccccc1)n2CCN1CCCCC1)NO`, the figures for the IC50 in the data set with HCT-116 [1], in the data set with A2780 and in the data set with PC-3 were 100 nM, 31 nM and 120 nM, respectively. The compound also gave a t1/2 in data set [4] of 1.3 min. Besides, in the data set “in vitro [2]”, the half-life stood at 10 min.
Consider `COc1cc(Cn2c(CCc3ccccc3)nc3cc(/C=C/C(=O)NO)ccc32)cc(OC)c1OC`, for which the figures for the concentration for half-maximal inhibition (IC50) in the data set on COLO 205 and against Histone deacetylase 1 were 320 nM and 47 nM, respectively.
Compound `O=C(/C=C/c1ccc2c(c1)nc(COCc1ccccc1)n2CCCO)NO` had an IC50 with COLO 205 of 4100 nM.
Turning to `COc1cc(Cn2c(CCc3ccccc3)nc3cc(CCC(=O)NO)ccc32)cc(OC)c1OC`, in the data set on COLO 205, the IC50 came to 2400 nM.
For the compound `O=C(/C=C/c1ccc2nc(CCc3ccccc3)[nH]c2c1)NO`, the IC50 in the data set on COLO 205 turned out to be 4400 nM; at Histone deacetylase 1, 170 nM.
Consider `O=C(/C=C/c1ccc2c(c1)nc(CCc1ccccc1)n2CCN1CCCC1)NO`, for which the result in the data set with HCT-116 [8] and in the data set with Mus musculus [9] was Active.
Consider `CN(C)CCCCn1c(CCc2ccccc2)nc2cc(/C=C/C(=O)NO)ccc21`, for which the IC50 in the data set with COLO 205 came to 1100 nM; at Histone deacetylase 1 it was 160 nM.
With `Cl.Cn1c(CCc2ccccc2)nc2cc(/C=C/C(=O)NO)ccc21`, the concentration for half-maximal inhibition (IC50) in the data set on HCT-116 [1] came to 1300 nM; with A2780 it was 730 nM; with PC-3, 890 nM. Besides, the half-life in the data set “in vitro [2]” was above 30 min; in the data set “in vitro [3]”, 23 min.
Take `O=C(/C=C/c1ccc2c(c1)nc(CCc1ccccc1)n2CCN1CCCCC1)NO`: the 50% inhibitory concentration (IC50) is 90 nM with COLO 205 and 26 nM against Histone deacetylase 1. Besides, in data set [5], the MTD worked out at 75 mg/kg. For the same compound, the inhibition in vivo at 75 mg/kg in the data set with HCT-116 [10] was 32%.
In turn, `O=C(/C=C/c1ccc2c(c1)nc(CCc1ccccc1)n2CCCN1CCOCC1)NO` displayed an IC50 in the data set with COLO 205 of 1900 nM.
On the same count and under the same terms, for `CCCCCCCCc1nc2cc(/C=C/C(=O)NO)ccc2n1CCCO` the value was 3700 nM.
The compound `Cn1c(CCc2ccccc2)nc2cc(/C=C/C(=O)NO)ccc21` came in with an IC50 with COLO 205 of 1200 nM. Moreover, in [5], the maximum tolerated dose (MTD) was 50 mg/kg. Also, the inhibition in vivo at 50 mg/kg in the data set on HCT-116 [11] was 23%.
Consider `Nc1ccccc1NC(=O)/C=C/c1ccc2c(c1)nc(CCc1ccccc1)n2Cc1ccccn1`, for which the IC50 in the data set on COLO 205 is 5100 nM; against Histone deacetylase 1 it was above 100000 nM.
As to `CCN(CC)CCn1c(CCc2ccccc2)nc2cc(/C=C/C(=O)NO)ccc21`, the inhibition in vivo at 60 mg/kg in the data set with HCT-116 [12] was 12%. Also, the half-maximal inhibitory concentration (IC50) stood at 220 nM in the data set with COLO 205 and 52 nM against Histone deacetylase 1. In [5], the MTD stood at 60 mg/kg.
As for `CC(C)Cc1nc2cc(/C=C/C(=O)NO)ccc2n1CCCO`, the half-inhibitory concentration (IC50) in the data set with COLO 205 amounted to 26000 nM; on Histone deacetylase 1, 100 nM.
In the same order, the values of `O=C(/C=C/c1ccc2nc(CCc3ccccc3)n(Cc3ccccc3)c2c1)NO` are 5400 nM and 1200 nM.
As for `O=C(/C=C/c1ccc2c(c1)nc(CCc1ccccc1)n2Cc1ccccn1)NO`, the IC50 was 880 nM with COLO 205 and 250 nM against Histone deacetylase 1.
On to `O=C(/C=C/c1ccc2c(c1)nc(CCc1ccccc1)n2CCc1ccccc1)NO`, for which 8800 nM corresponded to half-maximal inhibition in the data set on COLO 205 (IC50).
On the same count and under the same terms, for `CCn1c(CCc2ccccc2)nc2cc(/C=C/C(=O)NO)ccc21` the value was 1500 nM.
